Literature values in patent US10195165B2, “Methods of treating Prader-Willi syndrome” (Ovid Therapeutics Inc., priority 2015, dated 2019).

Assays:
C57B16 mice [1] = settings: 3 and 5 mg/kg intraperitoneal once daily for 7 days
C57B16 mice [2] = settings: 3 and 5 mg/kg intraperitoneal once daily for 7 days; remark: listed apart in the source
dopamine D3 [3] = target: T1, dopamine D3 (Homo sapiens, UniProt P35462)
Target sequence in this assay (P35462 whole entry): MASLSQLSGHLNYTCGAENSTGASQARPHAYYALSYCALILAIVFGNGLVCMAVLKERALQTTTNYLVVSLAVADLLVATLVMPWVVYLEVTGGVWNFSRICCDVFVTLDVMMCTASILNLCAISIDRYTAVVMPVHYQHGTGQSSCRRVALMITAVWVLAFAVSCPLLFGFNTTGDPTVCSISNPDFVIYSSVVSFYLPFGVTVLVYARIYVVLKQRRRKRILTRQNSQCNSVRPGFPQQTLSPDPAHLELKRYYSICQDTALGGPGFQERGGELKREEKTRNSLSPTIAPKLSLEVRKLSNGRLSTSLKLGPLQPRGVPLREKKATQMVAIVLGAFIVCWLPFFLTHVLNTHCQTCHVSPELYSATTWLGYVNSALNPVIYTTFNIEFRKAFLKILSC

Sigma 1 receptor [4] = target: T2, Sigma 1 receptor (Homo sapiens, UniProt Q99720)
[5] = tested on: subjects with mild to moderate anxiety weaned from benzodiazepine
Sigma 1 receptor [6] = target: T2, Sigma 1 receptor; parameters: Novascreen; settings: 1 μM captodiamine competing with a reference ligand
[7] = tested on: Glial Derived Neurotrophic Factor (GDNF)
C57B16 mice [8] = settings: 3 and 5 mg/kg intraperitoneal once daily for 7 days; remark: listed apart in the source
[9] = tested on: car driving ability of individuals; settings: compared to lorazepam
[10] = tested on: brain-derived neurotrophic factor (BDNF)
5-HT2C = target: T3, 5-HT2C (Homo sapiens, UniProt P28335)
T3 sequence (P28335 33-458): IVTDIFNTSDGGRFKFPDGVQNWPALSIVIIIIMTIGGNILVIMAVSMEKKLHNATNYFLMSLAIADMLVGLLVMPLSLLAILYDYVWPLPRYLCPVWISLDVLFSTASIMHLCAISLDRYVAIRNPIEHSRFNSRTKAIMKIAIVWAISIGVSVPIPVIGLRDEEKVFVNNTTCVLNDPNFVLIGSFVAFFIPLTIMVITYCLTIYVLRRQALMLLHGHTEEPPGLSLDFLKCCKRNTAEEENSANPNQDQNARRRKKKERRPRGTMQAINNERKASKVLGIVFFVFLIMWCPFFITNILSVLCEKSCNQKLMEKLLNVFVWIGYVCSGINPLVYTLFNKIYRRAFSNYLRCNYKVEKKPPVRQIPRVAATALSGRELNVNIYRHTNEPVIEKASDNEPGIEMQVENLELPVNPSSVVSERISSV

serotonin 5HT2c receptor = target: T4, serotonin 5HT2c receptor (Homo sapiens, UniProt P28335); settings: 1 μM captodiamine competing with a reference ligand
T4 construct: Novascreen
T4 sequence (P28335 33-458): T3 sequence (P28335 33-458)

C57B16 mice [11] = settings: 3 mg/kg dose, intraperitoneal; one-tailed t-test
C57B16 mice [12] = settings: 3 and 5 mg/kg intraperitoneal once daily for 7 days; remark: listed apart in the source
dopamine D3 [13] = target: T1, dopamine D3; parameters: Novascreen; settings: 1 μM captodiamine competing with a reference ligand
Target sequence in this assay (P35462 whole entry, species assumed): as the sequence (P35462 whole entry) above

C57B16 mice [14] = settings: 3 and 5 mg/kg intraperitoneal once daily for 7 days; remark: listed apart in the source
Sigma 2 receptor = target: T5, Sigma 2 receptor (Homo sapiens, UniProt Q5BJF2); settings: 1 μM captodiamine competing with a reference ligand
T5 construct: Novascreen
T5 sequence (Q5BJF2 whole entry, species assumed): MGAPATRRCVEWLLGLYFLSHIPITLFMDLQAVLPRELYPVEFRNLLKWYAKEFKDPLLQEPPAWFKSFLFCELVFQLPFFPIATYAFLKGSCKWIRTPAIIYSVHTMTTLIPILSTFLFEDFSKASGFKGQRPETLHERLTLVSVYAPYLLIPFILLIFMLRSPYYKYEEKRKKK

[15] = tested on: Brain Derived Neurotrophic Factor (BDNF)

T2 sequence (Q99720 whole entry, species assumed): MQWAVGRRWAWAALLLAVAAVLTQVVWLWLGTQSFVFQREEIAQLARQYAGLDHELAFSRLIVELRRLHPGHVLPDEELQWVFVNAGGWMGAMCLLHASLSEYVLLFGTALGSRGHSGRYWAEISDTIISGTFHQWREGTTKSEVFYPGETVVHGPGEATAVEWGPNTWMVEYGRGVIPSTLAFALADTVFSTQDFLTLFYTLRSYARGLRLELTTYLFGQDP

- activity at dopamine D3 (dopamine D3 [3]): dopamine D3 agonist
- activity at sigma-1 receptor (Sigma 1 receptor [4]): sigma-1 receptor agonist
- percent target inhibition, Sigma 1 receptor (Sigma 1 receptor [6]): greater than 90%
- activity at 5-HT2C (5-HT2C): 5-HT2C antagonist
- percent target inhibition, serotonin 5HT2c receptor (serotonin 5HT2c receptor): greater than 80%
- percent target inhibition, dopamine D3 receptor (dopamine D3 [13]): greater than 80%
- percent target inhibition, Sigma 2 receptor (Sigma 2 receptor): greater than 20%
Structure (SMILES): CCCCSc1ccc(C(SCCN(C)C)c2ccccc2)cc1 (stereo not drawn) [captodiamine, 2-[(4-butylsulfanylphenyl)-phenylmethyl]sulfanyl-N,N-dimethylethanamine]
- water maze spatial learning task (C57B16 mice [1]): significant pro-cognitive action
- exploring the open arms of the elevated X-maze (C57B16 mice [2]): significantly longer periods exploring the open arms
- Tyrer Benzodiazepine Withdrawal Symptom Questionnaire (BWSQ) score ([5]; 150 mg/d for 45 days versus placebo, primary outcome): statistically significant difference (p<0.0001; ANCOVA with repeated measures) between the two study groups in favor of captodiamine
- drowsiness score ([5]; 150 mg/d versus placebo): declined from D0
- self-reported anxiety scores ([5]; 150 mg/d versus placebo, weaning and assessment phases): anxiety scores evolved little during the weaning phase and then fell during the assessment phase
- re-emergence of anxiety or withdrawal symptoms after stopping captodiamine ([5]; after treatment stopped at 45 days): no re-emergence of anxiety or evidence for withdrawal symptoms
- severity of benzodiazepine withdrawal symptoms ([5]; compared to placebo, background summary): lower severity of benzodiazepine withdrawal symptoms
- levels of expression of GDNF, hypothalamus ([7]; hypothalamus): not in either the hippocampus or the hypothalamus
- levels of expression of GDNF, prefrontal cortex ([7]; prefrontal cortex): significantly decreased
- time to immobility in the forced swim test (C57B16 mice [8]): significant increase on time to immobility
- concentration and dexterity when driving [9]: improved the concentration and dexterity
- tendency to drowsiness when driving [9]: without inducing a tendency to drowsiness
- BDNF protein levels, hypothalamus [10]: increase brain-derived neurotrophic factor (BDNF) protein levels in the hypothalamus
- time investigating objects during the training phase, Novel Object Recognition Task (C57B16 mice [11]): significantly longer investigating objects during the training phase
- basal locomotion in the open-field paradigm (C57B16 mice [12]): no influence on basal locomotion
- time in the center of the arena (open-field) (C57B16 mice [12]): significantly more time in the center
- pre-pulse inhibition paradigm (C57B16 mice [14]): no effect on the pre-pulse inhibition paradigm
- BDNF expression levels and/or activity, hippocampus ([15]; hippocampus): no effect
- levels of expression of BDNF, hypothalamus ([15]; hypothalamus): significantly increased
- BDNF expression levels and/or activity, prefrontal cortex ([15]; prefrontal cortex): no effect
